# Data as given in ChEMBL document CHEMBL1201862, “PubChem BioAssay data set” (2004).
#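 A five-concentration, 48-hour dose response in 96-well plates underlies each endpoint, interpolated linearly between surrounding concentrations. Here, GI50 denotes the concentration required for 50% inhibition of growth.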 Active and inactive are the calls of the source. No stated cut-off is given here; in the data, active = GI50 up to about 1.1 µM and inactive = higher.
# What was measured:
# Test in all cases: NCI-60 cell line screen, 48 h
# A549 = tested on: A549
# ACHN = tested on: ACHN
# HCT-15 = tested on: HCT-15
# HL-60 = tested on: HL-60
# HT-29 = tested on: HT-29
# IGROV-1 = tested on: IGROV-1
# KM12 = tested on: KM12
# MOLT-4 = tested on: MOLT-4
# NCI-H23 = tested on: NCI-H23
# NCI-H460 = tested on: NCI-H460
# OVCAR-3 = tested on: OVCAR-3
# OVCAR-4 = tested on: OVCAR-4
# OVCAR-5 = tested on: OVCAR-5
# SF-295 = tested on: SF-295
# SF-539 = tested on: SF-539
# SNB-75 = tested on: SNB-75
# RPMI-8226 = tested on: RPMI-8226
SMILES,GI50 (A549),GI50 (ACHN),GI50 (HCT-15) [µM],GI50 (HL-60),GI50 (HT-29),GI50 (IGROV-1),GI50 (KM12),GI50 (MOLT-4),GI50 (NCI-H23),GI50 (NCI-H460),GI50 (OVCAR-3),GI50 (OVCAR-4),GI50 (OVCAR-5),GI50 (SF-295),GI50 (SF-539),GI50 (SNB-75),GI50 (RPMI-8226)
CCOC(=O)c1c2ccc(/C=C/c3ccccn3)ccc-2c(C(=O)OCC)c1N,> 100 µM (inactive),73.5 µM (inactive),> 100,89.1 µM (inactive),> 100 µM (inactive),> 100 µM (inactive),> 100 µM (inactive),> 100 µM (inactive),> 100 µM (inactive),89.1 µM (inactive),> 100 µM (inactive),37.6 µM (inactive),> 100 µM (inactive),> 100 µM (inactive),88.9 µM (inactive),> 100 µM (inactive),
CC[P+](C)(C)c1ccccc1,> 100 µM (inactive),> 100 µM (inactive),> 100,,> 100 µM (inactive),> 100 µM (inactive),> 100 µM (inactive),> 100 µM (inactive),> 100 µM (inactive),> 100 µM (inactive),> 100 µM (inactive),99.3 µM (inactive),> 100 µM (inactive),> 100 µM (inactive),> 100 µM (inactive),> 100 µM (inactive),> 100 µM (inactive)
CCOC(=O)c1cc(-c2ccc(-c3cc(C(=O)OCC)c(C#N)c(N)c3C#N)cc2)c(C#N)c(N)c1C#N,> 100 µM (inactive),> 100 µM (inactive),> 100,> 100 µM (inactive),> 100 µM (inactive),> 100 µM (inactive),> 100 µM (inactive),> 100 µM (inactive),> 100 µM (inactive),> 100 µM (inactive),> 100 µM (inactive),> 100 µM (inactive),> 100 µM (inactive),> 100 µM (inactive),> 100 µM (inactive),,> 100 µM (inactive)
CC(C)(Oc1ccc2c(=O)cc(-c3ccc(Cl)cc3)oc2c1)C(=O)Nc1c(Cl)cccc1Cl,> 100 µM (inactive),,24.2,> 100 µM (inactive),> 100 µM (inactive),> 100 µM (inactive),> 100 µM (inactive),> 100 µM (inactive),> 100 µM (inactive),> 100 µM (inactive),> 100 µM (inactive),,> 100 µM (inactive),> 100 µM (inactive),> 100 µM (inactive),,> 100 µM (inactive)
CCC12CCCN(Cc3ccccc3)C1c1c(n(C)c3ccccc13)CC2 (centres undefined),> 25.3 µM (inactive),246 µM (inactive),185,106 µM (inactive),167 µM (inactive),159 µM (inactive),86.1 µM (inactive),101 µM (inactive),111 µM (inactive),> 253 µM (inactive),60.8 µM (inactive),,,117 µM (inactive),> 253 µM (inactive),,92.7 µM (inactive)
C/C(CC(=O)Nc1ccccc1[N+](=O)[O-])=N\NC(N)=O,> 100 µM (inactive),> 100 µM (inactive),,> 100 µM (inactive),> 100 µM (inactive),> 100 µM (inactive),> 100 µM (inactive),> 100 µM (inactive),> 100 µM (inactive),> 100 µM (inactive),> 100 µM (inactive),,> 100 µM (inactive),> 100 µM (inactive),> 100 µM (inactive),> 100 µM (inactive),> 100 µM (inactive)
CN1CCN=C1c1nnn(-c2ccc([N+](=O)[O-])cc2)c1-c1ccccc1,> 100 µM (inactive),> 100 µM (inactive),> 100,18.8 µM (inactive),64.9 µM (inactive),> 100 µM (inactive),> 100 µM (inactive),> 100 µM (inactive),> 100 µM (inactive),> 100 µM (inactive),> 100 µM (inactive),> 100 µM (inactive),> 100 µM (inactive),> 100 µM (inactive),> 100 µM (inactive),> 100 µM (inactive),
CC(C)OC(=O)C1=C(O)c2ccccc2S(=O)(=O)N1,> 100 µM (inactive),> 100 µM (inactive),> 100,,> 100 µM (inactive),> 100 µM (inactive),> 100 µM (inactive),> 100 µM (inactive),> 100 µM (inactive),> 100 µM (inactive),> 100 µM (inactive),> 100 µM (inactive),> 100 µM (inactive),> 100 µM (inactive),> 100 µM (inactive),> 100 µM (inactive),
CC1/C(=N\O)CC(c2ccccc2)N(C)C1c1ccccc1 (centres undefined),> 100 µM (inactive),> 100 µM (inactive),> 100,> 100 µM (inactive),> 100 µM (inactive),> 100 µM (inactive),> 100 µM (inactive),> 100 µM (inactive),> 100 µM (inactive),> 100 µM (inactive),> 100 µM (inactive),> 100 µM (inactive),> 100 µM (inactive),> 100 µM (inactive),> 100 µM (inactive),> 100 µM (inactive),
C#CCN(Cc1ccc2nc(-c3ccccc3)c(Cl)nc2c1)c1ccc(Cl)c(Cl)c1,> 100 µM (inactive),> 100 µM (inactive),> 100,> 100 µM (inactive),> 100 µM (inactive),> 100 µM (inactive),> 100 µM (inactive),> 100 µM (inactive),> 100 µM (inactive),> 100 µM (inactive),60 µM (inactive),> 100 µM (inactive),> 100 µM (inactive),> 100 µM (inactive),> 100 µM (inactive),> 100 µM (inactive),
CC1=CC(=O)NCCN1C,> 100 µM (inactive),> 100 µM (inactive),> 100,45.9 µM (inactive),> 100 µM (inactive),> 100 µM (inactive),> 100 µM (inactive),> 100 µM (inactive),> 100 µM (inactive),> 100 µM (inactive),> 100 µM (inactive),> 100 µM (inactive),> 100 µM (inactive),> 100 µM (inactive),> 100 µM (inactive),> 100 µM (inactive),
O=C(NC1C(=O)NNC1c1cccc([N+](=O)[O-])c1)c1ccccc1 (centres undefined),> 100 µM (inactive),> 100 µM (inactive),,90.8 µM (inactive),> 100 µM (inactive),> 100 µM (inactive),> 100 µM (inactive),> 100 µM (inactive),> 100 µM (inactive),> 100 µM (inactive),> 100 µM (inactive),> 100 µM (inactive),> 100 µM (inactive),> 100 µM (inactive),,> 100 µM (inactive),> 100 µM (inactive)
c1ccc(NC[Si]23OCCN(CCO2)CCO3)cc1,> 100 µM (inactive),> 100 µM (inactive),,,> 100 µM (inactive),> 100 µM (inactive),> 100 µM (inactive),> 100 µM (inactive),> 100 µM (inactive),> 100 µM (inactive),> 100 µM (inactive),,> 100 µM (inactive),> 100 µM (inactive),> 100 µM (inactive),> 100 µM (inactive),> 100 µM (inactive)
